From ChEMBL document CHEMBL1201862, “PubChem BioAssay data set” (2004)
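Five concentrations, 48 hours, 96-well plates. At the GI50, growth is halved.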 Calls of active or inactive are those of the source. Cut-off read from the data, not from the text of the source: active = GI50 up to about 1.1 µM and inactive = higher.

Columns and labels:
Test in all cases: growth of human tumour cells (NCI), 48 h
[1] = test system: NCI-H23
[2] = test system: SF-539
[3] = test system: MOLT-4
[4] = test system: KM12
[5] = test system: NCI-H460
[6] = test system: T47D
[7] = test system: CCRF-CEM
[8] = test system: 786-0
[9] = test system: NCI-H226
[10] = test system: LOX IMVI
[11] = test system: OVCAR-4
[12] = test system: A549
[13] = test system: DU-145
[14] = test system: MDA-MB-435
[15] = test system: UO-31
[16] = test system: EKVX
[17] = test system: OVCAR-8
[18] = test system: COLO 205
[19] = test system: NCI-H522
[20] = test system: HOP-92

Measured: GI50

C/C(=N\NC(=O)c1ccncc1)c1sc(-n2nc(-c3ccccc3)cc2-c2ccccc2)nc1C
inactive: [1] > 31.6 µM | [2] > 31.6 µM | [3] 17.1 µM | [4] 99.5 µM | [5] > 31.6 µM | [6] 18.5 µM | [7] > 31.6 µM | [8] > 31.6 µM | [9] > 64.1 µM | [10] > 80.9 µM | [11] > 31.6 µM | [12] > 31.6 µM | [13] > 31.6 µM | [14] > 31.6 µM | [15] > 31.6 µM | [16] 47.8 µM | [17] > 100 µM | [18] > 100 µM | [19] > 35.7 µM | [20] > 31.6 µM

CN(C)CN1C(=O)/C(=N\n2c(S)nnc2-c2ccncc2)c2ccccc21
inactive: [1] 37.8 µM | [2] 23.5 µM | [3] 12.1 µM | [4] 43.7 µM | [5] 38.3 µM | [6] 30.8 µM | [7] 9.38 µM | [8] 16.9 µM | [9] > 100 µM | [10] 22.9 µM | [11] 17.1 µM | [12] 55 µM | [13] 26.5 µM | [14] 15.8 µM | [15] 29.5 µM | [16] > 100 µM | [17] 23.7 µM | [18] 38.3 µM | [19] 16.6 µM | [20] 76.9 µM

Cc1ccc(/C=C2\Cc3c(C)cc(C)cc3C2=O)c(C(=O)O)c1
inactive: [1] 55.5 µM | [2] 15.9 µM | [3] 35.5 µM | [4] 46.3 µM | [5] 48.2 µM | [6] 82.2 µM | [7] 35.1 µM | [8] 61.5 µM | [9] 23.8 µM | [10] 22.6 µM | [11] 34.7 µM | [12] 49.9 µM | [13] 51.5 µM | [14] 31.6 µM | [15] 50.7 µM | [16] 33.4 µM | [17] 51.8 µM | [18] 34.8 µM | [19] 78.9 µM | [20] 36.1 µM

CCCCCCCCCCCCCCCCP(=O)([O-])OCC[N+](C)(C)C
inactive: [1] 20.2 µM | [2] 24.5 µM | [3] 17.2 µM | [4] 2.61 µM | [5] 5.75 µM | [6] 17.6 µM | [7] 8.47 µM | [8] 7.46 µM | [9] 23 µM | [10] 14.9 µM | [11] 19.1 µM | [12] 18.1 µM | [13] 14.7 µM | [14] 17.3 µM | [15] 14.9 µM | [16] 20.1 µM | [17] 16.9 µM | [18] 6.58 µM | [19] 22.6 µM | [20] 15 µM

CC(C)(C)OC(=O)NC(CSSCC(NC(=O)OC(C)(C)C)C(=O)O)C(=O)O (stereo not given)
inactive: [1] > 100 µM | [2] > 100 µM | [3] > 100 µM | [4] > 100 µM | [5] > 100 µM | [6] > 100 µM | [7] > 100 µM | [8] > 100 µM | [9] > 100 µM | [10] > 100 µM | [11] > 100 µM | [12] > 100 µM | [13] > 100 µM | [14] > 100 µM | [15] > 100 µM | [16] > 100 µM | [17] > 100 µM | [18] > 100 µM | [19] > 100 µM | [20] > 100 µM

CCOC(=O)C(NC(=O)c1cccc(Cl)c1)(Nc1ccc(S(=O)(=O)Nc2cc(C)on2)cc1)C(F)(F)F (stereo not given)
inactive: [1] > 100 µM | [2] > 100 µM | [3] > 100 µM | [4] > 100 µM | [5] > 100 µM | [6] > 100 µM | [7] > 100 µM | [8] > 100 µM | [9] > 100 µM | [10] > 100 µM | [11] > 100 µM | [12] > 100 µM | [13] > 100 µM | [14] > 100 µM | [15] > 100 µM | [16] > 100 µM | [17] > 100 µM | [18] > 100 µM | [19] > 100 µM | [20] > 100 µM

Cc1c(N2C(=O)/C(=C/c3ccc(Cl)cc3)N=C2c2ccccc2)c(=O)n(-c2ccccc2)n1C
inactive: [1] 26.2 µM | [2] 28.5 µM | [3] 21.2 µM | [4] 26.5 µM | [5] 31 µM | [6] 29.6 µM | [7] 28.3 µM | [8] 46.8 µM | [9] 30.7 µM | [10] 16.7 µM | [11] 33.9 µM | [12] 28.8 µM | [13] 38.2 µM | [14] 19.5 µM | [15] 26.2 µM | [16] 19.7 µM | [17] 43.7 µM | [18] 16 µM | [19] 19.8 µM | [20] 18.7 µM

CCOc1cc(C=O)ccc1O [ETHYL VANILLIN]
inactive: [1] > 100 µM | [2] > 100 µM | [3] > 100 µM | [4] > 100 µM | [5] > 100 µM | [6] > 100 µM | [7] > 10 µM | [8] > 100 µM | [9] > 100 µM | [10] > 100 µM | [11] > 100 µM | [12] > 100 µM | [13] > 100 µM | [14] > 100 µM | [15] > 100 µM | [16] > 100 µM | [17] > 100 µM | [18] > 100 µM | [19] > 100 µM | [20] > 100 µM
